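Cells were grown in 96-well plates and exposed to each compound for 48 hours at five concentrations; endpoints were interpolated linearly between bracketing concentrations, or set to the highest concentration if not reached. GI50 = concentration required for 50% inhibition of growth.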 Activity calls are given as the source filed them. Rule as the data show it: active = GI50 up to about 1.1 µM and inactive = higher.
How the values were obtained:
Assay in all cases: growth of human tumour cells (NCI), 48 h
A498 = system: A498
SNB-75 = system: SNB-75
SF-295 = system: SF-295
UACC-257 = system: UACC-257
SF-268 = system: SF-268
NCI-H226 = system: NCI-H226
CCRF-CEM = system: CCRF-CEM
786-0 = system: 786-0
DU-145 = system: DU-145
HCC 2998 = system: HCC 2998
CAKI-1 = system: CAKI-1
EKVX = system: EKVX
OVCAR-8 = system: OVCAR-8
RXF 393 = system: RXF 393
COLO 205 = system: COLO 205
HOP-62 = system: HOP-62
SNB-19 = system: SNB-19
MDA-MB-231 = system: MDA-MB-231
TK-10 = system: TK-10
ACHN = system: ACHN
A549 = system: A549
HCT-116 = system: HCT-116
MDA-MB-435 = system: MDA-MB-435
MCF7 = system: MCF7
OVCAR-3 = system: OVCAR-3
BT-549 = system: BT-549
SR = system: SR
Hs-578T = system: Hs-578T
SN12C = system: SN12C
UO-31 = system: UO-31
HT-29 = system: HT-29
MDA-N = system: MDA-N
SF-539 = system: SF-539
SK-MEL-2 = system: SK-MEL-2
HCT-15 = system: HCT-15
NCI-H522 = system: NCI-H522
KM12 = system: KM12
M14 = system: M14
T47D = system: T47D
LOX IMVI = system: LOX IMVI
PC-3 = system: PC-3
NCI-H460 = system: NCI-H460
SW-620 = system: SW-620
HL-60 = system: HL-60
NCI-H23 = system: NCI-H23
UACC-62 = system: UACC-62
NCI/ADR-RES = system: NCI/ADR-RES
SK-MEL-5 = system: SK-MEL-5
IGROV-1 = system: IGROV-1
OVCAR-5 = system: OVCAR-5
SK-OV-3 = system: SK-OV-3
MOLT-4 = system: MOLT-4
RPMI-8226 = system: RPMI-8226
U-251 = system: U-251
SK-MEL-28 = system: SK-MEL-28
K562 = system: K562

CCCCCCCCCCCCC(=O)NCC(=O)NC(Cc1ccccc1)C(=O)Oc1ccc([N+](=O)[O-])cc1 (stereo not given)
GI50 (A498): > 100 µM (inactive)
GI50 (SNB-75): 18.5 µM (inactive)
GI50 (SF-295): 50.4 µM (inactive)
GI50 (UACC-257): > 100 µM (inactive)
GI50 (SF-268): 31.9 µM (inactive)
GI50 (NCI-H226): 33.5 µM (inactive)
GI50 (CCRF-CEM): 29.4 µM (inactive)
GI50 (786-0): 84.3 µM (inactive)
GI50 (DU-145): > 100 µM (inactive)
GI50 (HCC 2998): 44.4 µM (inactive)
GI50 (CAKI-1): > 100 µM (inactive)
GI50 (EKVX): 70.6 µM (inactive)
GI50 (OVCAR-8): 48.2 µM (inactive)
GI50 (RXF 393): 91.4 µM (inactive)
GI50 (COLO 205): 16.7 µM (inactive)
GI50 (HOP-62): > 100 µM (inactive)
GI50 (SNB-19): 15.2 µM (inactive)
GI50 (MDA-MB-231): 48.4 µM (inactive)
GI50 (TK-10): > 100 µM (inactive)
GI50 (ACHN): > 100 µM (inactive)
GI50 (A549): > 100 µM (inactive)
GI50 (HCT-116): 30.9 µM (inactive)
GI50 (MDA-MB-435): 65.8 µM (inactive)
GI50 (MCF7): 57.5 µM (inactive)
GI50 (OVCAR-3): > 100 µM (inactive)
GI50 (BT-549): 44.9 µM (inactive)
GI50 (SR): 33.7 µM (inactive)
GI50 (Hs-578T): 75.3 µM (inactive)
GI50 (SN12C): 70.1 µM (inactive)
GI50 (UO-31): 92.9 µM (inactive)
GI50 (HT-29): 82.2 µM (inactive)
GI50 (MDA-N): > 100 µM (inactive)
GI50 (SF-539): 91.8 µM (inactive)
GI50 (SK-MEL-2): > 100 µM (inactive)
GI50 (HCT-15): 38.1 µM
GI50 (NCI-H522): 29.4 µM (inactive)
GI50 (KM12): 55.6 µM (inactive)
GI50 (M14): 49.1 µM (inactive)
GI50 (T47D): 92.9 µM (inactive)
GI50 (LOX IMVI): 36.2 µM (inactive)
GI50 (PC-3): > 100 µM (inactive)
GI50 (NCI-H460): > 100 µM (inactive)
GI50 (SW-620): 39.9 µM (inactive)
GI50 (HL-60): 64.4 µM (inactive)
GI50 (NCI-H23): 57.7 µM (inactive)
GI50 (UACC-62): 60.3 µM (inactive)
GI50 (NCI/ADR-RES): 57.1 µM (inactive)
GI50 (SK-MEL-5): 72.4 µM (inactive)
GI50 (IGROV-1): 87.9 µM (inactive)
GI50 (OVCAR-5): > 100 µM (inactive)

c1nncn1C12C3C4C5C3C1C5C42 (stereo not given)
GI50 (A498): > 100 µM (inactive)
GI50 (SNB-75): > 100 µM (inactive)
GI50 (SF-295): > 100 µM (inactive)
GI50 (UACC-257): > 100 µM (inactive)
GI50 (SF-268): > 100 µM (inactive)
GI50 (NCI-H226): > 100 µM (inactive)
GI50 (CCRF-CEM): > 100 µM (inactive)
GI50 (786-0): > 100 µM (inactive)
GI50 (SK-OV-3): > 100 µM (inactive)
GI50 (DU-145): > 100 µM (inactive)
GI50 (HCC 2998): > 100 µM (inactive)
GI50 (EKVX): > 100 µM (inactive)
GI50 (OVCAR-8): > 100 µM (inactive)
GI50 (COLO 205): > 100 µM (inactive)
GI50 (MOLT-4): > 100 µM (inactive)
GI50 (RPMI-8226): > 100 µM (inactive)
GI50 (HOP-62): > 100 µM (inactive)
GI50 (U-251): > 100 µM (inactive)
GI50 (SNB-19): > 100 µM (inactive)
GI50 (MDA-MB-231): > 100 µM (inactive)
GI50 (TK-10): > 100 µM (inactive)
GI50 (ACHN): > 100 µM (inactive)
GI50 (A549): > 100 µM (inactive)
GI50 (HCT-116): > 100 µM (inactive)
GI50 (MDA-MB-435): > 100 µM (inactive)
GI50 (MCF7): > 100 µM (inactive)
GI50 (BT-549): > 100 µM (inactive)
GI50 (SR): > 100 µM (inactive)
GI50 (Hs-578T): > 100 µM (inactive)
GI50 (SN12C): > 100 µM (inactive)
GI50 (HT-29): > 100 µM (inactive)
GI50 (MDA-N): > 100 µM (inactive)
GI50 (SF-539): > 100 µM (inactive)
GI50 (SK-MEL-2): > 100 µM (inactive)
GI50 (HCT-15): > 100 µM
GI50 (NCI-H522): > 100 µM (inactive)
GI50 (KM12): > 100 µM (inactive)
GI50 (T47D): > 100 µM (inactive)
GI50 (LOX IMVI): > 100 µM (inactive)
GI50 (SK-MEL-28): > 100 µM (inactive)
GI50 (PC-3): > 100 µM (inactive)
GI50 (K562): > 100 µM (inactive)
GI50 (NCI-H460): > 100 µM (inactive)
GI50 (SW-620): > 100 µM (inactive)
GI50 (HL-60): > 100 µM (inactive)
GI50 (NCI-H23): > 100 µM (inactive)
GI50 (NCI/ADR-RES): > 100 µM (inactive)
GI50 (SK-MEL-5): > 100 µM (inactive)
GI50 (IGROV-1): > 100 µM (inactive)
GI50 (OVCAR-5): > 100 µM (inactive)

Source: ChEMBL document CHEMBL1201862, “PubChem BioAssay data set” (2004)
